The values that follow come from publication PMC9964651, “Discovery of Ureido-Based Apcin Analogues as Cdc20-specific Inhibitors against Cancer” (Pharmaceuticals, 2023).

The subject of experiment [1] is Hepg2. Briefly: In vitro antiproliferative assay (CCK-8). As to conditions: Homo sapiens, HepG2, 48 h, read-out: IC50 ± SD Hepg2.
Protocol: (§1) Hela and MDA-MB-132 cells were grown in DMEM (Gibco) containing 10% FBS and 1% double antibody (penicillin 100 U/mL, streptomycin 100 μg/mL, Solarbio). […] All cell lines were purchased from the Xiangya Cell Bank, Central South University, Changsha, China, and incubated at 37 °C with 5% CO2 in a humidified atmosphere. […] Cytotoxicity assay was assessed using CCK-8 methods. The cells were seeded in a 96-well plate (2 × 10^3–3 × 10^3 cells/well), the 96-well plate was incubated at 37 °C with 5% CO2 in a humidified atmosphere, and the cells were grown in a monolayer; the original culture was discarded. A total of 100 μL of drug-containing medium with a specific concentration gradient was added and then cultivated for 48 h; 10 μL/well of CCK-8 solution was added, put in an incubator, and incubated for 1 h and read with a multi-function microplate reader at a wavelength of 450 nm. The inhibition rate was calculated, and the IC50 results were calculated by GraphPad Prism 7 software. The experiment was repeated three times.
The target in experiment [2] is recombinant human Cdc20 protein (Homo sapiens, UniProt Q12834). The experiment is described as follows: Surface plasmon resonance (SPR) assay. The format is binding. As to conditions: for Kd: dissociation-equilibrium constant; for Kd / Kd (1/S): one-to-one model; for Kd (1/S): dissociation-rate constant. The protocol: Surface plasmon resonance (SPR) analysis can measure the interaction process between various biomolecules, such as polypeptides, proteins, oligonucleotides, and oligosaccharides, as well as viruses, bacteria, cells, and small molecular compounds. First, we installed the COOH chip according to the standard operating procedure of the OpenSPRTM instrument and started running it at the maximum flow rate (150 μL/min). The detection buffer was PBS, and after reaching the signal baseline, 200 μL of isopropanol were loaded and the air was removed by running for 10 s. After reaching baseline, the sample loop was flushed with buffer and evacuated with air, and after the signal reached baseline, the buffer flow rate was adjusted to 20 μL/min. A total of 200 μL of EDC/NHS (1:1) solution (20 μL/min, 4 min), 200 μL EDC/NHS (1:1) solution (20 μL/min, 4 min), and 200 μL recombinant human Cdc20 protein buffer was loaded and run for 4 min (20 μL/min), and the sample loop was rinsed with buffer and drained with null air. A total of 200 μL of blocking solution was loaded (20 μL/min, 4 min), and the sample loop was flushed with buffer and evacuated with air. After the baseline was stable, the analyte was diluted with buffer and loaded at 20 μL/min. The binding time of the analyte and the ligand was 240 s, and the natural dissociation time was 480 s. The analysis software used for the experimental results was TraceDrawer (Ridgeview Instruments ab, Sweden), and the analysis method was the one-to-one analysis model.
Chain of recombinant human Cdc20 protein (Q12834 whole entry): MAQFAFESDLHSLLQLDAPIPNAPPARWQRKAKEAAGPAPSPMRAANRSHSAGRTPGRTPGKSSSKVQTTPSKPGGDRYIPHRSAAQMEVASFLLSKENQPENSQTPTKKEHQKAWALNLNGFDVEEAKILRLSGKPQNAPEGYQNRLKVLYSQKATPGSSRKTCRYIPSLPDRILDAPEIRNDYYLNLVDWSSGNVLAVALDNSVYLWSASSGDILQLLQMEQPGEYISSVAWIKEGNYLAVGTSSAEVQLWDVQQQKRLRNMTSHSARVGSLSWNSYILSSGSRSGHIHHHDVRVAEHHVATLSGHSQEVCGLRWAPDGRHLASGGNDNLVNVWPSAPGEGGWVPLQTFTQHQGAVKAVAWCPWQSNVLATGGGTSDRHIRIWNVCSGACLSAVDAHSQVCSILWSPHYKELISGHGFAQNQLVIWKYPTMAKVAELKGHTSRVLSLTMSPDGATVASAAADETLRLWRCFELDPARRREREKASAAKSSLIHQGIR
Molecules were tested in a dilution series starting at 500 μM. The analyte was diluted with buffer and loaded at 20 μL/min. The binding time of the analyte and the ligand was 240 s, and the natural dissociation time was 480 s. The analysis software used for the experimental results was TraceDrawer (Ridgeview Instruments AB, Sweden), and the analysis method was the one-to-one analysis model.
On the technique in general: Surface plasmon resonance follows binding to a sensor surface in real time, without labels.

For experiment [3], the system named is Hela cells. Briefly: Cell-cycle assay (flow cytometry, propidium iodide). The format is cell-based, human. The settings on record: 24 h; for number of cells in the mitotic G2/M phase: in words. On the procedure:
Then, the preset drug concentration was added and incubated for 24 h. Cells were collected by centrifugation and were fixed overnight with pre-cooled ethanol (70%) and washed twice with buffer, propidium-iodide staining solution was added (0.5 mL/well), and they were incubated at 37 °C for 30 min in the dark for flow detection.
Background: Flow cytometry measures light scatter and fluorescence of single cells or particles in a stream.

Another experiment has as its system Mda-mb-231. Briefly: In vitro antiproliferative assay (CCK-8). The settings on record: Homo sapiens, MDA-MB-231, 48 h, read-out: IC50 ± SD Mda-mb-231.
The subject of experiment [4] is Hela cells. The experiment is described as follows: Annexin V-FITC/PI double-staining cell-apoptosis assay. The format is cell-based, human. The settings on record: 24 h, in words. On the procedure:
Then, the preset drug concentration was added and incubated for 24 h. Cells were collected by centrifugation, resuspended in buffer, and then stained by adding Annexin V-FITC (5 μL) and PI Staining Solution (5 μL) and incubated at room temperature for 10 min. The samples were detected by flow cytometry within 1 h after staining. Flow cytometer (Beckman Coulter Cytofex) was used for subsequent detection, and the data were processed with FlowJo software.

In experiment [5] the test system is Hela. Briefly: In vitro antiproliferative assay (CCK-8). The format is cell-based, human. The settings on record: Homo sapiens, HeLa; CCK-8, 48 h, mean ± SD. An excerpt: The experiment was repeated three times.
The subject of experiment [6] is Mcf-7. Briefly: In vitro antiproliferative assay (CCK-8). As to conditions: Homo sapiens, MCF7, 48 h, read-out: IC50 ± SD Mcf-7.
Protocol: as §1
In the next experiment the test system is four cancer-cell lines. The experiment is described as follows: In vitro antiproliferative assay (CCK-8), cell line not given. As to conditions: Homo sapiens, read-out: IC50 (antiproliferative activity).
In experiment [7] the test system is Mcf-7. Set-up: method as in PMID 32290657. The settings on record: previous studies; read-out: IC50 ± SD Mcf-7; cited from earlier work.
For experiment [8], the system named is Hepg2. More on the design: method as in PMID 32290657. As to conditions: previous studies; read-out: IC50 ± SD Hepg2; cited from earlier work.
Experiment [9] concerns Hela. Set-up: method as in PMID 32290657. As to conditions: previous studies; read-out: IC50 ± SD Hela; cited from earlier work.
Experiment [10] concerns tubulin. Set-up: method as in PMID 32290657. As to conditions: previous research of the authors; cited from earlier work.
In experiment [11] the test system is tubulin. Briefly: Tubulin polymerization assay in vitro. The format is biochemical. On the procedure: We used an HTS-Tubulin Polymerization Assay Kit (BK004P, Cytoskeleton, USA) to assess the inhibitory effect of compounds on tubulin polymerization. Tubulin solution was prepared, and the compound solution and paclitaxel solution were tested according to the instructions of the kit. General tubulin buffer, paclitaxel solution, and 10× test compound solution were added to a 96-well plate (10 μL/well) and incubated at 37 °C for two minutes. A total of 100 μL of tubulin solution was pipetted into the corresponding wells. The plate was immediately placed on a multi-function microplate reader at 37 °C, and the continuous kinetic values were recorded.
Figure 7 The effect of compound 20 and compound 27 on in vitro tubulin polymerization was tested. Polymerization of purified tubulin was performed in a cell-free assay. Tubulin protein was incubated at 37 °C in a reaction buffer exposed to vehicle control or test compounds at the indicated concentrations. Absorbance at 340 nm was monitored at 37 °C every 30 s for 1 h.

For experiment [12], the system named is Cdc20 and downstream substrates (cyclin B1, securin, Bim, cleaved PARP) in Hela cells. Briefly: Western blot of Cdc20 and Cdc20 downstream proteins. Format: cell-based, human. The settings on record: for Cdc20 protein level: 12 h after addition. On the procedure:
The lysate for extracting cellular proteins was prepared with bromophenol blue (0.02%), dithiothreitol (DTT; 0.5M), glycerol (30%), sodium dodecyl sulfate (SDS; 10%) and Tris-Cl (0.25M, pH 6.8). Protein extracts were separated according to molecular weight by the polyacrylamide gel electrophoresis (PAGE) method and then transferred to solid-phase support (PVDF membrane). The PVDF membrane was placed in a blocking solution containing 5% skim milk for 2 h, followed by incubation with primary and secondary antibodies, and the bands were detected and imaged in the ChemiDocTMXRS+ imaging system.
Figure 1 (A) Expression levels of Cdc20 protein in different cell lines. (B) Cdc20 levels were measured by Western blot 12 h after the addition of compounds. The reproducibility of the results was confirmed by at least two separate experiments. (a) Quantitative results of (A) compared to Hela. (b) Quantitative results of (B) compared to control. Statistical significance was calculated by two-tailed unpaired t test.
Figure 4 (A) Protein levels of cyclin B1 and securin were measured by Western blot. (B) Protein levels of Bim were measured by Western blot. (C) Protein levels of cleaved PARP were measured by Western blot. […] (a–d) Quantitative results of (A–C) compared to control. Statistical significance was calculated by two-tailed unpaired t test (* p < 0.05, ** p < 0.01, *** p < 0.001).
For orientation: In western blotting, separated proteins are transferred to a membrane and probed.

Where two headings read alike, the source gives them in different places.

Protocol for Mda-mb-231: as §1
Protocol for four cancer-cell lines: as §1

What is called IC50 is the concentration at which inhibition is half-maximal. By Kd is commonly meant the constant that tells how readily two partners part at equilibrium. Turning to `Cc1ncc([N+](=O)[O-])n1CCOC(=O)N[C@@H](Nc1ncccn1)C(Cl)(Cl)Cl` (racemic) [Apcin], the IC50 was above 100 µM in the experiment on Hepg2 [1], above 100 µM in the experiment with Mda-mb-231, 182 ± 12.5 µM in the experiment with Hela [5] and above 100 µM with Mcf-7 [6]. Besides, in experiment [2], the Kd is 236 µM. The “Kd (1/S)” value in experiment [2] is reported as 2.33 × 10^−2 1/S. Further, in the experiment on Hela cells [3] (150μm), the “P4 gate (cells in the G2/M phase)” value is reported as 34.87%. In addition, the “number of cells in the mitotic G2/M phase” value (shortened to “number of cells”) in the experiment with Hela cells [3] is on record as “significant increase”. The apoptotic rates entry with Hela cells [4] is “increased in a concentration-dependent way”.

For `CCNC(=O)NC(Nc1ncccn1)C(Cl)(Cl)Cl` (stereo not drawn) [Compound 5, 1-ethyl-3-(2,2,2-trichloro-1-(pyrimidin-2-ylamino)ethyl)urea], the 50% inhibitory concentration (IC50) with Hepg2 [1] was above 100 µM; in the experiment on Mda-mb-231, above 100 µM; in the experiment on Hela [5] it was above 100 µM; with Mcf-7 [6] it was above 100 µM; with four cancer-cell lines, above 80 µM.

On to `O=C(NC(Nc1ncccn1)C(Cl)(Cl)Cl)NS(=O)(=O)c1ccccc1` (stereo not drawn) [Compound 6, N-((2,2,2-trichloro-1-(pyrimidin-2-ylamino)ethyl)carbamoyl)benzenesulfonamide], for which the IC50 in the experiment on Hepg2 [1] was above 100 µM; in the experiment with Mda-mb-231 it was above 100 µM; with Hela [5] it was above 100 µM; with Mcf-7 [6], above 100 µM; in the experiment on four cancer-cell lines, above 80 µM.

In the case of `O=C(NCCc1ccccc1)NC(Nc1nccc(C(F)(F)F)n1)C(Cl)(Cl)Cl` (stereo not drawn) [Compound 7, 1-phenethyl-3-(2,2,2-trichloro-1-((4-(trifluoromethyl)pyrimidin-2-yl)aminno16)ethyl)urea], the IC50 with Hepg2 [1] is 20.7 ± 3.6 µM; with Mda-mb-231, 34.7 ± 1.23 µM; in the experiment on Hela [5], 34.2 ± 5.16 µM; in the experiment on Mcf-7 [6], 21.3 ± 4.52 µM; with four cancer-cell lines it was below 40 µM.

For the compound `Cc1ncc([N+](=O)[O-])n1CCOC(=O)N[C@H](Nc1c(Cl)nc(N)nc1Cl)C(Cl)(Cl)Cl` [Compound 7d], the half-inhibitory concentration (IC50) is 160 ± 5 µM with Mcf-7 [7], 25.6 ± 6.1 µM with Hepg2 [8] and 63.2 ± 0.9 µM in the experiment with Hela [9].

For the compound `Nc1nc(F)nc2c1ncn2[C@H](NC(=O)OCCN1CCOCC1)C(Cl)(Cl)Cl` [Compound 9f, reference compound], the concentration for half-maximal inhibition (IC50) in the experiment with Hepg2 [1] was 0.41 ± 0.36 µM; in the experiment with Mda-mb-231, 1.4 ± 0.22 µM; with Hela [9] it was 0.3 ± 0.2 µM; in the experiment on Hela [5], 0.1 ± 0.02 µM; in the experiment with Mcf-7 [6], 0.61 ± 0.12 µM. In the experiment on tubulin [10], the “effect on Cdc20 and microtubules” value is “dual inhibitory effects of Cdc20 and microtubules”.

Take `Nc1c(Cl)nc(NC(NC(=O)NCCc2ccccc2)C(Cl)(Cl)Cl)nc1Cl` (stereo not drawn) [Compound 20, 1-(1-((5-amino-4,6-dichloropyrimidin-2-yl)amino)-2,2,2-trichloroethyl)-3-phenethylurea]: the “effect on microtubule polymerization” value in the experiment on tubulin [11] (cell-free, purified tubulin, 37 °C, absorbance 340 nm, 30 μM) is on record as “slightly promoted microtubule polymerization”. Also, the IC50 in the experiment with Hepg2 [1] came to 31.2 ± 8.37 µM. Moreover, in [2], the Kd is 79.6 µM and the “Kd (1/S)” value is reported as 5.78 × 10^−3 1/S. Besides, the “binding affinity to Cdc20 relative to Apcin” value in [2] (from Kd values) is “about three times”. In addition, in the experiment with Hela cells [3] (40μm), the “P4 gate (cells in the G2/M phase)” value came to 41.09%. Besides, the “number of cells” value with Hela cells [3] is given as “significant increase”. The IC50 with Mda-mb-231 was determined as 30.4 ± 13 µM. Further, in experiment [12], the “expression of Bim” value is listed as “significantly increase”, the “expression of cleaved PARP” value was “significantly increase”, the “level of cyclin B1 protein” value was “significantly increased” and the “level of securin protein” value is “significantly increased”. Besides, the Cdc20 protein level entry in [12] was “no effect”. For the same compound, the apoptotic rates result in the experiment on Hela cells [4] was “increased in a concentration-dependent way”. In the experiment with Hela [5], this compound showed an IC50 of 24.7 ± 2.01 µM. The half-maximal inhibitory concentration (IC50) with Mcf-7 [6] came out at 35 ± 3.06 µM. Further, the IC50 in the experiment on four cancer-cell lines is below 40 µM.

For `Nc1nc(F)nc2c1ncn2C(NC(=O)NCCN1CCOCC1)C(Cl)(Cl)Cl` (stereo not drawn) [Compound 27, 1-(1-(6-amino-2-fluoro-9H-purin-9-yl)-2,2,2-trichloroethyl)-3-(2-morpholinoethyl)urea], in the experiment on tubulin [11] (cell-free, purified tubulin, 37 °C, absorbance 340 nm, 3 μM and 30 μM), the “effect on microtubule polymerization” value is on record as “promoted microtubule polymerization in a concentration-dependent manner”. In the experiment on Hepg2 [1], the IC50 came out at 0.24 ± 0.11 µM. The “number of cells” value with Hela cells [3] is given as “slightly reduced”. Also, the IC50 with Mda-mb-231 is 0.32 ± 0.04 µM. Further, in experiment [12], the “expression of Bim” value is reported as “significantly increase”, the “expression of cleaved PARP” value is “significantly increase”, the “level of cyclin B1 protein” value is listed as “significantly increased” and the “level of securin protein” value is “significantly increased”. The Cdc20 protein level result in [12] is “no effect”. Also, the apoptotic rates entry with Hela cells [4] is reported as “increased in a concentration-dependent way”. This compound also came in with an IC50 in the experiment on Hela [5] of 0.06 ± 0.02 µM. In the experiment on Mcf-7 [6], the 50% inhibitory concentration (IC50) is 0.27 ± 0.06 µM.

Regarding `CC(=O)O[C@H]1C(=O)[C@@]2(C)[C@H]([C@H](OC(=O)c3ccccc3)[C@]3(O)C[C@H](OC(=O)[C@H](O)[C@@H](NC(=O)c4ccccc4)c4ccccc4)C(C)=C1C3(C)C)[C@]1(OC(C)=O)CO[C@@H]1C[C@@H]2O` [paclitaxel, reference compound], the “effect on microtubule polymerization” value with tubulin [11] (reference compound, concentration not given) is “promote microtubule polymerization”.
